The record followed here is patent publication US20230339856A1, “NOVEL PHARMACOLOGICAL CHAPERONE COMPOUNDS OF HUMAN ACID ALPHA-GLUCOSIDASE AND THE THERAPEUTIC USE THEREOF” (UNIVERSITÉ GRENOBLE ALPES, priority 2020, published 2023).

A word on the IC50: it is the midpoint of a concentration-inhibition curve. A word on the Ki: it is a dissociation constant, usually derived from enzyme kinetics or from competition with a known ligand. The ΔTm is the change in melting temperature against a reference sample.

The target of assay [1] is T1, recombinant human acid α-glucosidase (rhGAA) (Homo sapiens (Human), UniProt P10253). The assay is described as follows: Inhibition of rhGAA determined by Fluopol-ABPP. The settings on record: McIlvaine buffer pH 5.0, 37° C., TAMRA probe. It is filed as binding. The text has this: The inhibiting activity on recombinant human acid α-glucosidase (rhGAA) of the compounds is implemented using the Fluopol-ABPP method (Fluorescence Polarization Activity Based Protein Profiling) described in the publication of Lahav et al., 2017, J. Am. Chem. Soc. 139: 14192-14197. This technique, based on the competition between an inhibitor and a fluorescent probe capable of binding covalently to the active site of an enzyme, makes it possible to measure the affinity of this inhibitor for the active site of the rhGAA enzyme used for these experiments by the laboratory of Professors Herman S. Overkleeft and Johanes M. F. G. Aerts, Leiden Institute of Chemistry, Leiden University (NL), is the enzyme marketed under the name Myozyme®. […] The […] (TAMRA) fluorescent probe in solution (25 nM) in the buffer is next added to the mixture. After 4 hours, the samples are irradiated with a polarized light (λ=530 nm) and the fluorescence emitted (λ=580 nm) is measured by means of an Infinite® M1000Pro (Tecan) spectrofluorimeter. For each concentration of inhibitor, the percentage of inhibition of the enzyme is determined by the formula:
%Inhibition=[Fmeasured−Fcontrol1)/Fcontro2)×100
The IC50 values are calculated by a non-linear regression of the % inhibition as a function of the concentration [I] by means of the GraphPad Prism 6.0 software. The results are a mean of three identical experiments (triplicates).

Assay [2] deals with T1, recombinant human acid α-glucosidase (rhGAA). In words: Inhibition of rhGAA determined by measuring the residual activity in vitro. Format: biochemical. The settings on record: sodium acetate buffer pH 4.0, 37° C.; for IC50: 4-nitrophenyl-α-D-glucopyranoside substrate.
The target in another assay is rhGAA (Homo sapiens (Human), UniProt P10253). In words: Thermal stabilization of rhGAA by DSF (differential scanning fluorimetry). It is filed as binding. The settings on record: [I]=100 μM, pH 7.4; for ΔTm at 100 µM: read-out: rhGAA ΔTm at pH 7.4. As for the experimental part: The stabilization of rhGAA in the presence of the compounds is determined in accordance with the method described in the publication of Niesen et al., 2007, Nat. Protoc. 2: 2212-2221. The rhGAA enzyme (2.5 μg, 0.1 mg/mL) is incubated in the absence and in the presence of each compound (at a concentration [I]=100 μM), of SYPRO® orange dye (Life Technologies), and of sodium phosphate buffer (25 mM) and of NaCI (150 mM), pH 7.4 or of sodium acetate buffer (25 mmol) and of NaCl (150 mM), pH 4.0. The thermal stability of the enzyme in these various conditions is evaluated by DSF (differential scanning fluorimetry) by varying the temperature by 1° C./min over an interval of 25 to 95° C., and measuring the fluorescence of the SYPRO® orange dye every minute by means of a Real-Time Cycler spectrofluorimeter (Biorad). The relative fluorescence is determined by comparing each fluorescence value measured with that of the maximum fluorescence value of the SYPRO® orange dye for each scan. The results are a mean of three identical experiments (triplicates).

On to `OC[C@]12[C@@H](O)[C@H](O)[C@@H](O)CN1[C@@H]2[C@H](O)C1CCCCC1` (stereo partly drawn) [Compound (IIn), (3S,4R,5R,6R,7S)-7-((R)-cyclohexyl(hydroxy)methyl)-6-(hydroxymethyl)-1-azabicyclo[4.1.0]heptane-3,4,5-triol], for which the IC50 in assay [1] is 24.6 µM. As for `CCCCC[C@]1(CO)NC[C@H](O)[C@@H](O)[C@@H]1O` [Compound (IIb1), (2R,3R,4R,5S)-2-(hydroxymethyl)-2-pentylpiperidine-3,4,5-triol], in assay [2], the Ki was 6.4 µM and the IC50 amounted to 49.1 µM. In addition, the ΔTm at 100 µM on rhGAA is 6.2 °C. Consider `CCCCCCC[C@]1(CO)NC[C@H](O)[C@@H](O)[C@@H]1O` [Compound (IIb3), (2R,3R,4R,5S)-2-heptyl-2-(hydroxymethyl)piperidine-3,4,5-triol], for which, in assay [2], the Ki turned out to be 10.8 µM and the IC50 was 29.6 µM. In addition, on rhGAA, the ΔTm at 100 µM is 16.9 °C.

With `OC[C@@H](O)[C@H]1N2C[C@H](O)[C@@H](O)[C@H](O)[C@]12CO` (stereo partly drawn) [Compound (IIj), (3S,4R,5R,6R,7S)-7-((S)-1,2-dihydroxyethyl)-6-(hydroxymethyl)-1-azabicyclo[4.1.0]heptane-3,4,5-triol], the IC50 in assay [1] was determined as 15.2 µM.

Regarding `OC[C@@]1(CCC2CCCCC2)NC[C@H](O)[C@@H](O)[C@@H]1O` [Compound (IIb7), (2R,3R,4R,5S)-2-(2-cyclohexylethyl)-2-(hydroxymethyl)piperidine-3,4,5-triol], the ΔTm at 100 µM on rhGAA came to 16.8 °C. In the case of `OC[C@@]1(CCCc2ccccc2)NC[C@H](O)[C@@H](O)[C@@H]1O` [Compound (IIc1), (2R,3R,4R,5S)-2-(hydroxymethyl)-2-(3-phenylpropyl)piperidine-3,4,5-triol], in assay [2], the Ki came out at 13 µM and the IC50 came out at 32.9 µM. The ΔTm at 100 µM on rhGAA was determined as 15 °C. As for `C[Si](C)(C)CC[C@]1(CO)NC[C@H](O)[C@@H](O)[C@@H]1O` [Compound (IIx1), (2R,3R,4R,5S)-2-(hydroxymethyl)-2-(2-(trimethylsilyl)ethyl)piperidine-3,4,5-triol], the IC50 in assay [2] turned out to be 40.3 µM. In addition, at rhGAA, the ΔTm at 100 µM was found to be 16.5 °C. As for `OC[C@@]1(CCC23CC4CC(CC(C4)C2)C3)NC[C@H](O)[C@@H](O)[C@@H]1O` [Compound (IIr)], in assay [2], the Ki came to 20 µM and the IC50 worked out at 29.5 µM. For the same compound, the “rhGAA ΔTm at pH 7.4” value at rhGAA was found to be 14.5 °C. In the case of `OC[C@@]12CCN1C[C@H](O)[C@@H](O)[C@@H]2O` [Compound (IIh), (3S,4R,5R,6R)-6-(hydroxymethyl)-1-azabicyclo[4.2.0]octane-3,4,5-triol], in assay [1], the IC50 is 9.7 µM. Still for that read-out and setting: with `OC[C@]12[C@@H](O)[C@H](O)[C@@H](O)CN1[C@@H]2C(O)c1ccccc1` (stereo in doubt) [Compound (IIm), (3S,4R,5R,6R,7S)-7-((S)-hydroxy(phenyl)methyl)-6-(hydroxymethyl)-1-azabicyclo[4.1.0]heptane-3,4,5-triol] the figure was 45 µM.

Turning to `OC[C@H]1N2C[C@H](O)[C@@H](O)[C@H](O)[C@]12CO` (stereo partly drawn) [Compound (IIk), (3S,4R,5R,6R,7S)-6,7-bis(hydroxymethyl)-1-azabicyclo[4.1.0]heptane-3,4,5-triol], the IC50 in assay [1] amounted to 11.6 µM.
